According to patent publication US10307413B2, “Tetrahydro- and dihydro-isoquinoline PRMT5 inhibitors and uses thereof” (Epizyme, Inc., priority 2013, dated 2019):

Assays:
[1] = tested on: symmetric di-methyl arginine in Z-138 cells; experiment: Z-138 Methylation Assay (In Cell Western for symmetric di-methyl arginine and DNA content); type: cell-based; conditions: Homo sapiens, read-out: ICW EC50
Summary of the method: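 In-cell western: symmetric di-methyl arginine signal ratioed to DRAQ5 DNA content after 96 h compound exposure of Z-138 cells seeded at 50,000 cells/mL.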

Z-138 cell line = experiment: Z-138 Proliferation Assay (Cell Titer Glo, 5 days); type: cell-based; conditions: Homo sapiens, 120 h; Z-138 cells, 5 days; read-out: Proliferation EC50
Summary of the method: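 Viability via CellTiter-Glo luminescence (ATP) after 5-day incubation at 37 °C, 5% CO2. Compounds tested in triplicate, nine 3-fold steps, highest final concentration 20 μM in 0.2% DMSO; 50% inhibitory concentration by 4-parameter fit of normalized curves.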

Q: For `O=C(NC[C@H](O)CN1CCc2ccccc2C1)c1cc(NC2CN(CC(F)(F)F)C2)ncn1` [Compound 282], which EC50 [1] is on record?
A: The EC50 was < 0.1 µM.

Q: And the EC50 (Z-138 cell line)?
A: The EC50 was 1 to 10 µM.

Q: Which EC50 [1] does the source give for `CS(=O)(=O)N1CC(Nc2cc(C(=O)NC[C@H](O)CN3CCc4ccccc4C3)ncn2)C1` [Compound 283] here?
A: The EC50 was < 0.1 µM.

Q: And the EC50 (Z-138 cell line)?
A: The EC50 was 0.101 to 1 µM.

Q: With `CC(=O)N1CC(Nc2cc(C(=O)NC[C@H](O)CN3CCc4ccccc4C3)ncn2)C1` [Compound 284, (S)-6-((1-acetylazetidin-3-yl)amino)-N-(3-(3,4-dihydroisoquinolin-2(1H)-yl)-2-hydroxypropyl)pyrimidine-4-carboxamide] as the molecule, how does the EC50 [1] read?
A: The EC50 was < 0.1 µM.

Q: What about the EC50 (Z-138 cell line) of the same molecule?
A: The EC50 was < 0.1 µM.

Q: For `O=C(NC[C@H](O)CN1CCc2ccccc2C1)c1cc(OC2CCN(CC(F)(F)F)CC2)ncn1` [Compound 285], which EC50 [1] is on record?
A: The EC50 was 0.101 to 1 µM.

Q: What about the EC50 (Z-138 cell line) of the same molecule?
A: The EC50 was 1 to 10 µM.

Q: Which EC50 [1] does the source give for `CS(=O)(=O)N1CCC(Oc2cc(C(=O)NC[C@H](O)CN3CCc4ccccc4C3)ncn2)CC1` [Compound 286] here?
A: The EC50 was < 0.1 µM.

Q: And the EC50 (Z-138 cell line)?
A: The EC50 was 1 to 10 µM.

Q: How did the EC50 [1] turn out when `CC(=O)N1CCC(Oc2cc(C(=O)NC[C@H](O)CN3CCc4ccccc4C3)ncn2)CC1` [Compound 287] was run?
A: The EC50 was < 0.1 µM.

Q: What about the EC50 (Z-138 cell line) of the same molecule?
A: The EC50 was 0.101 to 1 µM.

Q: With `CN1CCC(Oc2cncc(C(=O)NC[C@H](O)CN3CCc4ccccc4C3)c2)CC1` [Compound 288] as the molecule, how does the EC50 [1] read?
A: The EC50 was < 0.1 µM.

Q: What about the EC50 (Z-138 cell line) of the same molecule?
A: The EC50 was < 0.1 µM.

Q: How did the EC50 [1] turn out when `CS(=O)(=O)N1CCC(Oc2cncc(C(=O)NC[C@H](O)CN3CCc4ccccc4C3)c2)CC1` [Compound 290] was run?
A: The EC50 was 0.101 to 1 µM.

Q: And the EC50 (Z-138 cell line)?
A: Its EC50 is 10 to 50 µM.

Q: For `CC(=O)N(C)CCN(C)c1cc(C(=O)NC[C@H](O)CN2CCc3ccccc3C2)ccn1` [Compound 291], which EC50 [1] is on record?
A: Its EC50 is < 0.1 µM.

Q: And the EC50 (Z-138 cell line)?
A: Its EC50 is 1 to 10 µM.

Q: Which EC50 [1] does the source give for `CN1CCC(CNc2cc(C(=O)NC[C@H](O)CN3CCc4ccccc4C3)ccn2)CC1` [Compound 292] here?
A: Its EC50 is < 0.1 µM.

Q: And the EC50 (Z-138 cell line)?
A: Its EC50 is 0.101 to 1 µM.

Q: Which results are given for `CC(=O)N1CC[C@@H](Nc2cccc(C(=O)NC[C@H](O)CN3CCc4ccccc4C3)c2)C1` [Compound 293]?
A: EC50 [1]: < 0.1 µM; EC50 (Z-138 cell line): < 0.1 µM

Q: For `O=C(NC[C@H](O)CN1CCc2ccccc2C1)c1ccc2[nH]cnc2c1` [Compound 294], which EC50 [1] is on record?
A: The EC50 was 0.101 to 1 µM.

Q: What about the EC50 (Z-138 cell line) of the same molecule?
A: Its EC50 is 1 to 10 µM.

Q: How did the EC50 [1] turn out when `O=C(NC[C@H](O)CN1CCc2ccccc2C1)c1cc2c(F)cccc2[nH]1` [Compound 296] was run?
A: Its EC50 is < 0.1 µM.

Q: What about the EC50 (Z-138 cell line) of the same molecule?
A: The EC50 was 0.101 to 1 µM.

Q: For `CS(=O)(=O)N1CCC(Nc2cc(C(=O)NC[C@H](O)CN3CCc4ccccc4C3)ncn2)CC1` [Compound 297], which EC50 [1] is on record?
A: The EC50 was < 0.1 µM.

Q: What about the EC50 (Z-138 cell line) of the same molecule?
A: The EC50 was < 0.1 µM.

Q: Which EC50 [1] does the source give for `O=C(NC[C@H](O)CN1CCc2ccccc2C1)c1cncc(NC2CCOCC2)c1` [Compound 298] here?
A: The EC50 was < 0.1 µM.

Q: What about the EC50 (Z-138 cell line) of the same molecule?
A: The EC50 was 0.101 to 1 µM.

Q: Which results are given for `O=C(NC[C@H](O)CN1CCc2ccccc2C1)c1cncc(NC2COC2)c1` [Compound 299]?
A: EC50 [1]: 0.101 to 1 µM; EC50 (Z-138 cell line): 10 to 50 µM

Q: `O=C(NC[C@H](O)CN1CCc2ccccc2C1)c1cncc(NC2CCN(CC(F)(F)F)CC2)c1` [Compound 300] was tested. Which EC50 [1] did it give?
A: The EC50 was < 0.1 µM.

Q: And the EC50 (Z-138 cell line)?
A: The EC50 was 1 to 10 µM.

Q: How did the EC50 [1] turn out when `CS(=O)(=O)N1CCC(Nc2cncc(C(=O)NC[C@H](O)CN3CCc4ccccc4C3)c2)CC1` [Compound 301] was run?
A: Its EC50 is < 0.1 µM.

Q: What about the EC50 (Z-138 cell line) of the same molecule?
A: The EC50 was 0.101 to 1 µM.

Q: Which EC50 [1] does the source give for `CC(=O)N1CCC(Nc2cncc(C(=O)NC[C@H](O)CN3CCc4ccccc4C3)c2)CC1` [Compound 302] here?
A: The EC50 was < 0.1 µM.

Q: And the EC50 (Z-138 cell line)?
A: The EC50 was < 0.1 µM.

Q: What does the source list for `O=C(NC[C@H](O)CN1CCc2ccccc2C1)c1ccnc(NC2CCOC2)c1` (some centres unmarked) [Compound 306]?
A: EC50 [1]: < 0.1 µM; EC50 (Z-138 cell line): < 0.1 µM

Q: `Cc1cnc(NC2CCOCC2)cc1C(=O)NC[C@H](O)CN1CCc2ccccc2C1` [Compound 307] was tested. Which EC50 [1] did it give?
A: Its EC50 is < 0.1 µM.

Q: What about the EC50 (Z-138 cell line) of the same molecule?
A: Its EC50 is 0.101 to 1 µM.

Q: `Cc1cnc(NC2CCOC2)cc1C(=O)NC[C@H](O)CN1CCc2ccccc2C1` (some centres unmarked) [Compound 308] was tested. Which EC50 [1] did it give?
A: The EC50 was 0.101 to 1 µM.

Q: And the EC50 (Z-138 cell line)?
A: Its EC50 is 10 to 50 µM.

Q: For `Cn1nc(NC2CCOCC2)cc1C(=O)NCC(O)CN1CCc2ccccc2C1` (centres unmarked) [Compound 311], which EC50 [1] is on record?
A: Its EC50 is < 0.1 µM.

Q: What about the EC50 (Z-138 cell line) of the same molecule?
A: Its EC50 is < 0.1 µM.

Q: What does the source list for `Cn1nc(C(=O)NCC(O)CN2CCc3ccccc3C2)cc1NC1CCOCC1` (centres unmarked) [Compound 312]?
A: EC50 [1]: 0.101 to 1 µM; EC50 (Z-138 cell line): 1 to 10 µM

Q: What does the source list for `CNCCNc1cc(C(=O)NC[C@H](O)CN2CCc3ccccc3C2)ccn1` [Compound 314]?
A: EC50 [1]: < 0.1 µM; EC50 (Z-138 cell line): 10 to 50 µM
